In ChEMBL document CHEMBL4265921, “Novel bisphosphonates with antiresorptive effect in bone mineralization and osteoclastogenesis” (Eur J Med Chem, 2018):
Active and inactive are the calls of the source. No cut-off for these calls is given here.

Legend:
J774.A1 [1] = test: Antiproliferative activity against mouse J774A.1 cells assessed as change in cell proliferation at 100 uM after 72 hrs by crystal violet staining based assay relative to control; assay type: functional
RAW264.7 [2] = test: Antiproliferative activity against mouse RAW264.7 cells assessed as change in cell proliferation at 100 uM after 72 hrs by crystal violet staining based assay relative to control; assay type: functional
MG-63 [3] = test: Antiproliferative activity against human MG63 cells assessed as change in cell proliferation at 100 uM after 72 hrs by crystal violet staining based assay relative to control; assay type: functional
PC-3 [4] = test: Antiproliferative activity against human PC3 cells assessed as change in cell proliferation at 100 uM after 72 hrs by crystal violet staining based assay relative to control; assay type: functional
J774.A1 [5] = test: Antiproliferative activity against mouse J774A.1 cells assessed as reduction in cell proliferation at 500 uM after 72 hrs by crystal violet staining based assay; assay type: functional
RAW264.7 [6] = test: Antiproliferative activity against mouse RAW264.7 cells assessed as reduction in cell proliferation at 500 uM after 72 hrs by crystal violet staining based assay; assay type: functional
MG-63 [7] = test: Antiproliferative activity against human MG63 cells assessed as reduction in cell proliferation at 500 uM after 72 hrs by crystal violet staining based assay; assay type: functional
PC-3 [8] = test: Antiproliferative activity against human PC3 cells assessed as reduction in cell proliferation at 500 uM after 72 hrs by crystal violet staining based assay; assay type: functional
[9] = molecular target: T1, Farnesyl pyrophosphate synthase (Homo sapiens) (UniProt P14324); test: Inhibition of recombinant human C-terminal His6-tagged FPPS expressed in Escherichia coli BL21 at 100 uM using DMAPP and IPP as substrates pretreated for 15 mins followed by substrates addition and measured after 1 hr by colorimetric method relative to control
T1 sequence (whole entry): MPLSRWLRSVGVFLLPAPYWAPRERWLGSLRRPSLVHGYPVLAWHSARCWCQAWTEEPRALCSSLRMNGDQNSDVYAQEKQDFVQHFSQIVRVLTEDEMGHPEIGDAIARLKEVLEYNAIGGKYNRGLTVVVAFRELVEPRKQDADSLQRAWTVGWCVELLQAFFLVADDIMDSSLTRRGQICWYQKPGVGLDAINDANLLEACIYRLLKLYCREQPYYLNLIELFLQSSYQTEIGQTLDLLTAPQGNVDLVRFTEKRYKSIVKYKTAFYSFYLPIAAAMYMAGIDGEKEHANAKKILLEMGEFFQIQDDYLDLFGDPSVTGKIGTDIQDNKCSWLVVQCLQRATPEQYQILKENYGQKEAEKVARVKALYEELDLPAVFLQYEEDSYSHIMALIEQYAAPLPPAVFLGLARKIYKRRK

[10] = molecular target: T1, Farnesyl pyrophosphate synthase (Homo sapiens); test: Inhibition of recombinant human C-terminal His6-tagged FPPS expressed in Escherichia coli BL21 at 1 to 10 uM using DMAPP and IPP as substrates pretreated for 15 mins followed by substrates addition and measured after 1 hr by colorimetric method relative to control
[11] = molecular target: T2, Geranylgeranyl pyrophosphate synthase (Homo sapiens) (UniProt O95749); test: Inhibition of recombinant human C-terminal His6-tagged GGPPS expressed in Escherichia coli BL21 at 1 to 10 uM using IPP and FPP as substrates pretreated for 15 mins followed by substrates addition and measured after 1 hr by colorimetric method relative to control
T2 sequence (whole entry): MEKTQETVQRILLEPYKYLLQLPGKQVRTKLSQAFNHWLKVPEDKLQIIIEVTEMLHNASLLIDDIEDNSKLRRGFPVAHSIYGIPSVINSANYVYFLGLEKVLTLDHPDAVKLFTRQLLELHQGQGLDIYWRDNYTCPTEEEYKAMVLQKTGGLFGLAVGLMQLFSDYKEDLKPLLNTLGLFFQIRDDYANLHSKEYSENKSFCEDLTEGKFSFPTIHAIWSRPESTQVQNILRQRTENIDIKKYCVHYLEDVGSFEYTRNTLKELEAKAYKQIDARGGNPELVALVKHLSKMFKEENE

[12] = molecular target: T3, Farnesyl pyrophosphate synthase (Homo sapiens, UniProt P14324); test: Inhibition of recombinant human C-terminal His6-tagged FPPS expressed in Escherichia coli BL21 using DMAPP and IPP as substrates pretreated for 15 mins followed by substrates addition and measured after 1 hr by colorimetric method
T3 sequence (P14324 whole entry): T1 sequence (whole entry)

Hydroxyapatite = test: Binding affinity to hydroxyapatite at 100 uM using sodium salt form of compound after 5 mins by ESI/MS analysis

IC50 [12]	Structure (SMILES)	Activity (J774.A1 [1])	Activity (RAW264.7 [2])	Activity (MG-63 [3])	Activity (PC-3 [4])	Activity (J774.A1 [5])	Activity (RAW264.7 [6])	Activity (MG-63 [7])	Activity (PC-3 [8])	inhibition [9]	inhibition [10]	inhibition [11]	Activity (Hydroxyapatite)
–	O=P(O)(O)C(O)(CCCNc1ncnc2ccccc12)P(=O)(O)O	-10.813%	-16.077%	21.28%	-27.057%	inactive	inactive	inactive	inactive	25%	68 to 79%	68 to 79%	–
–	O=P(O)(O)C(O)(CNc1nc(-c2ccccc2)nc2ccccc12)P(=O)(O)O	-55.522%	-51.774%	-1.127%	0.156%	inactive	inactive	inactive	inactive	21%	68 to 79%	68 to 79%	–
–	O=P(O)(O)C(O)(CCCNc1ncccn1)P(=O)(O)O	-37.544%	-44.249%	-3.759%	-45.479%	inactive	inactive	inactive	inactive	43%	68 to 79%	68 to 79%	–
–	O=P(O)(O)C(O)(CSc1nc2ccccc2s1)P(=O)(O)O	–	–	–	–	–	–	inactive	inactive	26%	68 to 79%	68 to 79%	–
41 µM	O=P(O)(O)C(O)(CCNc1ncc2ccccc2n1)P(=O)(O)O	-59.879%	-52.95%	1.174%	-13.524%	inactive	inactive	inactive	inactive	79%	68 to 79%	68 to 79%	84%
–	O=P(O)(O)C(O)(CCCNc1ncc2ccccc2n1)P(=O)(O)O	-58.954%	-24.106%	5.921%	-19.628%	inactive	inactive	inactive	inactive	30%	68 to 79%	68 to 79%	–
–	O=P(O)(O)C(O)(CCCCc1ncc2ccccc2n1)P(=O)(O)O	-47.396%	-50.127%	-2.74%	-16.093%	inactive	inactive	inactive	inactive	48%	68 to 79%	68 to 79%	–
–	O=P(O)(O)C(O)(CSc1nc2ccccc2[nH]1)P(=O)(O)O	–	–	–	–	–	–	inactive	inactive	24%	68 to 79%	68 to 79%	–
–	O=P(O)(O)C(O)(CCNc1ncnc2ccccc12)P(=O)(O)O	6.688%	-16.95%	13.185%	-1.552%	inactive	inactive	inactive	inactive	56%	68 to 79%	68 to 79%	–
–	O=P(O)(O)C(O)(CCCCc1ncccn1)P(=O)(O)O	-24.754%	-35.941%	-0.023%	-14.446%	inactive	inactive	inactive	inactive	51%	68 to 79%	68 to 79%	–
–	O=P(O)(O)C(O)(CCNc1nc(-c2ccccc2)nc2ccccc12)P(=O)(O)O	-37.121%	-30.319%	-5.102%	-21.523%	inactive	inactive	inactive	inactive	25%	68 to 79%	68 to 79%	–
–	O=P(O)(O)C(O)(CNc1ncc2ccccc2n1)P(=O)(O)O	-11.108%	-25.015%	-15.998%	-23.934%	inactive	inactive	inactive	inactive	39.9%	68 to 79%	68 to 79%	–
–	O=P(O)(O)C(O)(CCNc1ncccn1)P(=O)(O)O	-3.329%	-18.897%	-18.291%	-49.419%	inactive	inactive	inactive	inactive	54%	68 to 79%	68 to 79%	–
–	CC(Nc1ncnc2ccccc12)C(O)(P(=O)(O)O)P(=O)(O)O (racemic)	-5.898%	-11.295%	-4.026%	-15.839%	inactive	inactive	inactive	inactive	56%	68 to 79%	68 to 79%	–
–	O=P(O)(O)C(O)(CCCCc1ncnc2ccccc12)P(=O)(O)O	-15.466%	-29.565%	24.024%	-10.283%	inactive	inactive	inactive	inactive	29%	68 to 79%	68 to 79%	–
–	O=P(O)(O)C(O)(CNc1nc2ccccc2s1)P(=O)(O)O	–	–	–	–	–	–	inactive	inactive	inactive	68 to 79%	68 to 79%	–
–	O=P(O)(O)C(O)(CNc1ncnc2ccccc12)P(=O)(O)O	-27.398%	-34.592%	-15.397%	-9.488%	inactive	inactive	inactive	inactive	52%	68 to 79%	68 to 79%	81%
–	CC(Nc1ncc2ccccc2n1)C(O)(P(=O)(O)O)P(=O)(O)O (racemic)	-18.855%	-16.783%	-8.959%	-17.252%	inactive	inactive	inactive	inactive	40%	68 to 79%	68 to 79%	–
